# Test results published in PubChem BioAssay AID743088 (The Scripps Research Institute Molecular Screening Center, 2013).
# Activity calls are given as the source filed them.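 The calls were made as follows: active = binding inhibited by at least 50%, or stimulated by at least 50%, shown as inhibition of -50% or lower; inactive = the rest.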
# Columns and labels:
# Experiment in all cases: off-target binding across receptor panel, profiling panel, selectivity assay for AVPR1a antagonist project, biochemical, Panlabs HitProfilingScreen (AID 743088)
# [1] = biological target: Voltage-gated inwardly rectifying potassium channel KCNH2 (Homo sapiens) (UniProt Q12809); settings: Panlabs radioligand binding panel, 30 targets; Potassium Channel hERG; at 10 µM; active compounds read high
# [2] = biological target: Muscarinic acetylcholine receptor M2 (Homo sapiens) (UniProt P08172); settings: Panlabs radioligand binding panel, 30 targets, at 10 µM, active compounds read high
# Adrenergic alpha1A = settings: Panlabs radioligand binding panel, 30 targets, at 10 µM, active compounds read high
# Glutamate NMDA = settings: Panlabs radioligand binding panel, 30 targets, Phencyclidine site, at 10 µM, active compounds read high
# Histamine H1 = settings: Panlabs radioligand binding panel, 30 targets, at 10 µM, active compounds read high
# [3] = biological target: Alpha-2A adrenergic receptor (Homo sapiens) (UniProt P08913); settings: Panlabs radioligand binding panel, 30 targets; Adrenergic alpha2A; at 10 µM; active compounds read high
# [4] = test system: Alpha-2A adrenergic receptor (Homo sapiens) + Histamine H1 receptor (Homo sapiens) + Mu-type opioid receptor (Homo sapiens); settings: Panlabs radioligand binding panel, 30 targets; at 10 µM; active compounds read high
# Sigma 1 = settings: Panlabs radioligand binding panel, 30 targets, at 10 µM, active compounds read high
# Nicotinic Acetylcholine = settings: Panlabs radioligand binding panel, 30 targets, at 10 µM, active compounds read high
# Dopamine D2 = settings: Panlabs radioligand binding panel, 30 targets, at 10 µM, active compounds read high
# [5] = biological target: Beta-2 adrenergic receptor (Homo sapiens) (UniProt P07550); settings: Panlabs radioligand binding panel, 30 targets; Adrenergic beta2; at 10 µM; active compounds read high
# [6] = biological target: 5-hydroxytryptamine receptor 2B (Homo sapiens) (UniProt P41595); settings: Panlabs radioligand binding panel, 30 targets; Serotonin (5-Hydroxytryptamine) 5-HT2B; at 10 µM; active compounds read high
# Adrenergic alpha1B = settings: Panlabs radioligand binding panel, 30 targets, at 10 µM, active compounds read high
# Cannabinoid CB1 = settings: Panlabs radioligand binding panel, 30 targets, at 10 µM, active compounds read high
# Adrenergic beta1 = settings: Panlabs radioligand binding panel, 30 targets, at 10 µM, active compounds read high
# Sodium Channel Site 2 = settings: Panlabs radioligand binding panel, 30 targets, at 10 µM, active compounds read high
# [7] = test system: Transporter Norepinephrine (NET); settings: Panlabs radioligand binding panel, 30 targets, at 10 µM, active compounds read high
# [8] = biological target: D(1A) dopamine receptor (Homo sapiens) (UniProt P21728); settings: Panlabs radioligand binding panel, 30 targets; Dopamine D1; at 10 µM; active compounds read high
# [9] = biological target: Muscarinic acetylcholine receptor M3 (Homo sapiens) (UniProt P20309); settings: Panlabs radioligand binding panel, 30 targets, at 10 µM, active compounds read high
# Adenosine A1 = settings: Panlabs radioligand binding panel, 30 targets, at 10 µM, active compounds read high
# Opiate mu (OP3, MOP) = settings: Panlabs radioligand binding panel, 30 targets, at 10 µM, active compounds read high
# Calcium Channel L-Type = settings: Panlabs radioligand binding panel, 30 targets, Dihydropyridine site, at 10 µM, active compounds read high
# Prostanoid EP4 = settings: Panlabs radioligand binding panel, 30 targets, at 10 µM, active compounds read high
# Adenosine A2A = settings: Panlabs radioligand binding panel, 30 targets, at 10 µM, active compounds read high
# GABAA Central = settings: Panlabs radioligand binding panel, 30 targets, at 10 µM, active compounds read high
# Sequence of Beta-2 adrenergic receptor (Homo sapiens) (P07550 whole entry, looked up): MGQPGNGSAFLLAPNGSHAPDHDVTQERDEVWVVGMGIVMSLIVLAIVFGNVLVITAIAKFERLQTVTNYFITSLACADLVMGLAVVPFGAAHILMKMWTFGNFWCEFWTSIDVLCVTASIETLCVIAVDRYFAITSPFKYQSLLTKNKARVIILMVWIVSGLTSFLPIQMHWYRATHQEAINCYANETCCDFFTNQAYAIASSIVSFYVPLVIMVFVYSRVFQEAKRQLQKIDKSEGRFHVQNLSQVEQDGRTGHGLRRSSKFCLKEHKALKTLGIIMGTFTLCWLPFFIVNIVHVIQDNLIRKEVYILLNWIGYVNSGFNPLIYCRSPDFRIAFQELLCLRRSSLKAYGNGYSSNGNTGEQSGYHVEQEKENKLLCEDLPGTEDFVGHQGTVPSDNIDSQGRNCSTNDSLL
# Sequence of Muscarinic acetylcholine receptor M3 (Homo sapiens) (P20309 whole entry, looked up): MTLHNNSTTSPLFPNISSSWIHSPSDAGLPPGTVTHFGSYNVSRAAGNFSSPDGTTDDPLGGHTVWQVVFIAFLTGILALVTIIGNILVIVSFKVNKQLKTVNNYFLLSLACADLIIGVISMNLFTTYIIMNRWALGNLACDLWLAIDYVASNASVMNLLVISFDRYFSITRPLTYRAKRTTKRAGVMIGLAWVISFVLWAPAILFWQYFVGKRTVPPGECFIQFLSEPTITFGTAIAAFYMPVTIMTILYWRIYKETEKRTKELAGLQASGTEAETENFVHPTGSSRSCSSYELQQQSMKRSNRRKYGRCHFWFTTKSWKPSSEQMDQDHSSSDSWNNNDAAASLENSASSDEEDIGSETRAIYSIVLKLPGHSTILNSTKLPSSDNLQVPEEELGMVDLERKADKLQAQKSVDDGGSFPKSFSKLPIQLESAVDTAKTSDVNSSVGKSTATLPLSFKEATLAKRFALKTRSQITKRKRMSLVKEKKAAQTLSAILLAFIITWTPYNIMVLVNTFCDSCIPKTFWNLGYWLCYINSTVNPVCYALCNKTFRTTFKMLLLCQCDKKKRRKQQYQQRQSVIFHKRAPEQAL
# Sequence of D(1A) dopamine receptor (Homo sapiens) (P21728 whole entry, looked up): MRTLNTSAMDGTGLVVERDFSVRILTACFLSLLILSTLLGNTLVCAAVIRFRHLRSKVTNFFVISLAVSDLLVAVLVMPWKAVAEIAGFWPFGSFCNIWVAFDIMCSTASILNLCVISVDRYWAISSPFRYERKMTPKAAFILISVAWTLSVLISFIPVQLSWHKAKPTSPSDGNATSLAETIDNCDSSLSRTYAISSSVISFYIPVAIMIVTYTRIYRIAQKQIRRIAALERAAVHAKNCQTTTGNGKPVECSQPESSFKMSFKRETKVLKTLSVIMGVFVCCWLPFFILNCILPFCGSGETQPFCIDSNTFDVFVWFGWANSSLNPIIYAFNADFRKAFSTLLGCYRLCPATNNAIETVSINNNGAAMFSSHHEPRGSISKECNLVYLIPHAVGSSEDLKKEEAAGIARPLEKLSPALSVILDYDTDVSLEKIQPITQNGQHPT
# Sequence of Alpha-2A adrenergic receptor (Homo sapiens) (P08913 whole entry, looked up): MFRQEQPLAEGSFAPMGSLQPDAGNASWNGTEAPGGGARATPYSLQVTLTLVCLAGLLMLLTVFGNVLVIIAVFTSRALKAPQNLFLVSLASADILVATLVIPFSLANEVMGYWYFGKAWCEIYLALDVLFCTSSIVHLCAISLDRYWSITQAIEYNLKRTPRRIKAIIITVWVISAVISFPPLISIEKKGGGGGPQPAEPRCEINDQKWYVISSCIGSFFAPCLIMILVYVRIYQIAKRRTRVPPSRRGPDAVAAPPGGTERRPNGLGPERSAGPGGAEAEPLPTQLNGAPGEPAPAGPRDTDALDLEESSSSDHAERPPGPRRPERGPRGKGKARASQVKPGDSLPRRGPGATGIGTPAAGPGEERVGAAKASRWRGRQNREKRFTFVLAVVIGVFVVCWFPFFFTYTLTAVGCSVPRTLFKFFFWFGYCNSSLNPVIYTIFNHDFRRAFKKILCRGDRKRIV
# Sequence of Voltage-gated inwardly rectifying potassium channel KCNH2 (Homo sapiens) (Q12809 whole entry, looked up): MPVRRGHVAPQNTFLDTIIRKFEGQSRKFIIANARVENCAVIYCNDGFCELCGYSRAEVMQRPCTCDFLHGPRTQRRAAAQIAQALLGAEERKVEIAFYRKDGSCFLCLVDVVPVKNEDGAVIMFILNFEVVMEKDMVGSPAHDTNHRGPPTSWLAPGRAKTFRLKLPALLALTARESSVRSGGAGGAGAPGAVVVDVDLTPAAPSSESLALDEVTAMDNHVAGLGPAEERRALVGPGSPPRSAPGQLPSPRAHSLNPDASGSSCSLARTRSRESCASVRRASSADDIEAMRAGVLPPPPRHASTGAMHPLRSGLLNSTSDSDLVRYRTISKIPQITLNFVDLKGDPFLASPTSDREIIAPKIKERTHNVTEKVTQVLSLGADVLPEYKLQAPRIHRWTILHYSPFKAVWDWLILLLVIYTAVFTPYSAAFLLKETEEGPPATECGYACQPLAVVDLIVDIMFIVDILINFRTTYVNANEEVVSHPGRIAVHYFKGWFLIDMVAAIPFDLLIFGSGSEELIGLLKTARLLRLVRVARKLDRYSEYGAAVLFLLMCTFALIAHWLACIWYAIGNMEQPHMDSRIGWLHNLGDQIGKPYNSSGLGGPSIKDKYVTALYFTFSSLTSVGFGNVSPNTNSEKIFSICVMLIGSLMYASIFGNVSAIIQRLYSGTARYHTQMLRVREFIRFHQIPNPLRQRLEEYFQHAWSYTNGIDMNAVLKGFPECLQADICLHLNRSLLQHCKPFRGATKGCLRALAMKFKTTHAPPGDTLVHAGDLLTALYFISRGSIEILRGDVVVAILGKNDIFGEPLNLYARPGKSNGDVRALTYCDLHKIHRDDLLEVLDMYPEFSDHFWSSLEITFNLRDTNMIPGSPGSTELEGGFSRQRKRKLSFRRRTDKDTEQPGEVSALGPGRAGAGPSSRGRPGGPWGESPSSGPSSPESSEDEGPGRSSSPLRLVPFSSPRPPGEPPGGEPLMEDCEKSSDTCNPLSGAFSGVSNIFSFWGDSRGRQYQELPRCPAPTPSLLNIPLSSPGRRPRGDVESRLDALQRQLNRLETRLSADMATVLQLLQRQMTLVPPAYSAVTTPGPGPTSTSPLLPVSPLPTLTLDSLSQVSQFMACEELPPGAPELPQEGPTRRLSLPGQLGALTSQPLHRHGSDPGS
# Sequence of Muscarinic acetylcholine receptor M2 (Homo sapiens) (P08172 whole entry, looked up): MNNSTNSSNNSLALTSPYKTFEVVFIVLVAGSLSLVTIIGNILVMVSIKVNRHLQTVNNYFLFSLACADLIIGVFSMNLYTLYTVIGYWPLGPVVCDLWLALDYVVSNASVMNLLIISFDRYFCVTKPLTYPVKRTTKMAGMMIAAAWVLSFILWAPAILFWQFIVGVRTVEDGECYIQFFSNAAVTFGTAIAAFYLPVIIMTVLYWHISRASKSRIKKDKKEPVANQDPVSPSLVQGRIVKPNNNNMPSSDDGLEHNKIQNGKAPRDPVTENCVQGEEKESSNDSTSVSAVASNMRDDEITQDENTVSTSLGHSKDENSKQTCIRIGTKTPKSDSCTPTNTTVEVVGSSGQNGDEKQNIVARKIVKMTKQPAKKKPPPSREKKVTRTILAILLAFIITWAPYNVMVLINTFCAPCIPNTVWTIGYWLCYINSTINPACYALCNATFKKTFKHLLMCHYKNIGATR
# Sequence of 5-hydroxytryptamine receptor 2B (Homo sapiens) (P41595 whole entry, looked up): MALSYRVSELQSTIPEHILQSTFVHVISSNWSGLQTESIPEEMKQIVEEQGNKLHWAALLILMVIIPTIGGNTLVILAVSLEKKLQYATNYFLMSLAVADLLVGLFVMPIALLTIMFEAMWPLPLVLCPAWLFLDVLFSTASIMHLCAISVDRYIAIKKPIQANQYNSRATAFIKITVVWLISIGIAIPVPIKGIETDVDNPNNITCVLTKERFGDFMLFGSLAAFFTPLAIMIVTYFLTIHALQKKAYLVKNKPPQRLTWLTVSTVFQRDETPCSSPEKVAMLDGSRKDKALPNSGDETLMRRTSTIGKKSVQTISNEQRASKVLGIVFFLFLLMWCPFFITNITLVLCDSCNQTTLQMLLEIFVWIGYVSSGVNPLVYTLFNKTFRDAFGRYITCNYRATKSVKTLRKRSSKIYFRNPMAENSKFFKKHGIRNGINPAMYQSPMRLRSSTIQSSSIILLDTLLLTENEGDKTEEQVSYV
smiles,measurement,setting,value
O=C(C1CCN(c2ccc(Cl)cn2)CC1)N(CC1CC1)c1ccc(Cl)cc1,inhibition of binding,[1],22% (inactive)
same,inhibition of binding,[2],-5% (inactive)
same,inhibition of binding,Adrenergic alpha1A,23% (inactive)
same,inhibition of binding,Glutamate NMDA,5% (inactive)
same,inhibition of binding,Histamine H1,12% (inactive)
same,inhibition of binding,[3],8% (inactive)
same,inhibition of binding,[4],6% (inactive)
same,inhibition of binding,Sigma 1,61%
same,inhibition of binding,Nicotinic Acetylcholine,-15% (inactive)
same,inhibition of binding,Dopamine D2,1% (inactive)
same,inhibition of binding,[5],5% (inactive)
same,inhibition of binding,[6],36% (inactive)
same,inhibition of binding,Adrenergic alpha1B,-15% (inactive)
same,inhibition of binding,Cannabinoid CB1,48% (inactive)
same,inhibition of binding,Adrenergic beta1,12% (inactive)
same,inhibition of binding,Sodium Channel Site 2,35% (inactive)
same,inhibition of binding,[7],47% (inactive)
same,inhibition of binding,[8],-6% (inactive)
same,inhibition of binding,[9],-2% (inactive)
same,inhibition of binding,Adenosine A1,-4% (inactive)
same,inhibition of binding,"Opiate mu (OP3, MOP)",23% (inactive)
same,inhibition of binding,Calcium Channel L-Type,44% (inactive)
same,inhibition of binding,Prostanoid EP4,31% (inactive)
same,inhibition of binding,Adenosine A2A,7% (inactive)
same,inhibition of binding,GABAA Central; Flunitrazepam site,-6% (inactive)
same,inhibition of binding,GABAA Central; Muscimol site,7% (inactive)
